Earlier results as cited in patent publication US20020037899A1, “Compositions containing an inhibitor of dihydrofolate reductase and a folate” (priority 2000, published 2002).

Legend:
[1] = test system: rheumatoid arthritis patients receiving methotrexate; details: for reduction in mucosal and gastrointestinal side effect: folic acid or folinic acid administered to rheumatoid arthritis patients receiving methotrexate
[2] = not given; remark: listed apart in the source

Compound | reduction in mucosal and gastrointestinal side effect [1] [%] | effect on disease symptoms such as painful joints ([1]; high dosages of folinic acid, rheumatoid arthritis patients receiving methotrexate) | solubility in water [mg per ml] | stable to heating at temperatures [2]
Nc1nc(=O)c2c([nH]1)NCC(CNc1ccc(C(=O)N[C@@H](CCC(=O)O)C(=O)O)cc1)N2C=O (mixture of isomers) [folinic acid] | 79 | increase in disease symptoms |  | 
Nc1nc2ncc(CNc3ccc(C(=O)N[C@@H](CCC(=O)O)C(=O)O)cc3)nc2c(=O)[nH]1 [folic acid] | 79 |  | 1.6 | below 200 °C
